From patent US8722727B2, “Antifungal agents” (Seynix, Inc., priority 2008, dated 2014)

biological target: T1, glucan synthase (GS) (Candida albicans, UniProt O13428); test: Glucan synthase inhibition (polymerization assay, 96-well); format: biochemical; conditions: glucan synthase prepared from Candida albicans MY1055; 60 min incubation at 22° C.; read-out: Candida Albicans GS IC50 (ng/mL) (converted)
T1 construct: Extraction of GS activity from membranes was performed at a protein concentration of 5 mg/mL in extraction buffer; endogenous in cells; host or cells: Candida albicans MY1055 (membrane fraction, detergent extraction, product entrapment)
Procedure: The in vitro evaluation of glucan synthase inhibitory activity of compounds was measured in a polymerization assay in 96-well format. Each well contained 100 μL of ^3H-UDPG at 0.5 mM (6000 to 8000 dpm/nmol), 50 mM HEPES pH 7.5 (Sigma), 10% w/v glycerol (Sigma), 1.5 mg/mL bovine serum albumin (Sigma A 9647. Lot 44H0190), 25 mM KF (Fisher), 1 mM EDTA (Gibco ULTRAPURE), 25 μM GTP-γ-S, enzyme sufficient to give 3 to 6 nmoles incorporation during the 60 min incubation at 22° C., and test compound added from wells in 3-fold serial dilutions in 100% DMSO (1 μL/well). The reaction was stopped by the addition of 100 μL of 20% trichloroacetic acid. Plates were chilled for a minimum of 10 min, and precipitated glucan collected by filtration on GF/C plates (Packard UNIFILTER®-96), washed with 5 cycles of water (about 1 mL/well each cycle) using a Packard FILTERMATE HARVESTER. 40 μL/well scintillation fluid (Packard ULTIMA GOLD TM-XR) was added and the sealed plates counted in a WALLAC BETA counter in top-counting mode at an efficiency of approximately 40%.
Stock solutions were stored at 10 mg/mL in DMSO at −20° C. For each new enzyme preparation, the initial titration performed started at 1 mg/mL, which was prepared by making a 10-fold dilution in DMSO (5 μL to 50 μL). 40 μL of this stock was placed in column 12 of a round-bottomed 96-well microtiter plate. 40 μL DMSO was added to columns 1 to 11 in the same row and ten 3-fold serial dilutions performed, by transferring 20 μL from column 12 to column 11 etc., with 4 mixings before each transfer. No test compound was transferred to from column 2 to column 1. Duplicate aliquots of 1 μL of all 12 dilutions were then transferred to the side walls of a 96-well Bioblock 1.1 mL plate (Fisher brand) to create two rows. Graphs of the primary data were created in PRISM software (the average of two determinations) using PRISM's curve fitting program (sigmoidal dose response non-linear regression). The amount of compound required to inhibit glucan synthase activity by 50% in this assay (IC50-ng/mL) was calculated.
Routine analysis was performed with glucan synthase (GS) prepared from Candida albicans MY1055 by the following procedure: MY1055 was grown in 10 liters YPD medium (10 g yeast extract, 20 g tryptone, 20 g glucose per liter) with vigorous shaking at 30° C., to early stationary phase. Cells were harvested by centrifugation, the pellet was washed and frozen at −70° C. until breakage. Thawed pellets were shaken with an equal volume of breakage buffer (50 mM HEPES pH 7.4, 10% glycerol, 1 mM EDTA, 1 mM PMSF, 1 mM DTT) and 4 times their weight of 0.5 mm acid washed glass beads for 2 hours at 4° C. Extent of breakage was assessed visually at 40× magnification. After low speed centrifugation to remove cell debris, the supernatant was centrifuged at 100,000×g for 60 min. to separate membranes plus ribosomes from cytoplasmic components. Membranes were further washed two additional times with breakage buffer using the same centrifugation conditions and finally suspended in breakage buffer at 25 to 30 mg/mL protein (Biorad) for storage at −70° C. Extraction of GS activity from membranes was performed at a protein concentration of 5 mg/mL in extraction buffer (50 mM NaPO4 pH 7.5, 0.1 M KCl, 0.1M Na citrate, 20% glycerol, 5 μM GTP-γ-S, 1 mM DTT, 1 mM PMSF, 3 μg/mL pepstatin) plus 0.25% W1 by gentle mixing at 4° C. for 60 min, followed by centrifugation at 100,000×g for 60 min. After centrifugation, clear supernatant was removed from a pellet consisting of a hard layer usually with small amounts of gelatinous unextracted membranes above it.
Trapping was initiated immediately by 5-fold dilution in trapping buffer (50 mM HEPES pH 7.5, 10 mM KF, 1 mM EDTA, 2 mg/mL BSA) plus 2.5 mM UDPG and 10 μM GTP-γ-S. After incubation at 25° C. for 60 to 90 minutes, glucan was harvested by low speed centrifugation (3,000×g, 10 min). […]

T1 sequence (O13428 1-1897): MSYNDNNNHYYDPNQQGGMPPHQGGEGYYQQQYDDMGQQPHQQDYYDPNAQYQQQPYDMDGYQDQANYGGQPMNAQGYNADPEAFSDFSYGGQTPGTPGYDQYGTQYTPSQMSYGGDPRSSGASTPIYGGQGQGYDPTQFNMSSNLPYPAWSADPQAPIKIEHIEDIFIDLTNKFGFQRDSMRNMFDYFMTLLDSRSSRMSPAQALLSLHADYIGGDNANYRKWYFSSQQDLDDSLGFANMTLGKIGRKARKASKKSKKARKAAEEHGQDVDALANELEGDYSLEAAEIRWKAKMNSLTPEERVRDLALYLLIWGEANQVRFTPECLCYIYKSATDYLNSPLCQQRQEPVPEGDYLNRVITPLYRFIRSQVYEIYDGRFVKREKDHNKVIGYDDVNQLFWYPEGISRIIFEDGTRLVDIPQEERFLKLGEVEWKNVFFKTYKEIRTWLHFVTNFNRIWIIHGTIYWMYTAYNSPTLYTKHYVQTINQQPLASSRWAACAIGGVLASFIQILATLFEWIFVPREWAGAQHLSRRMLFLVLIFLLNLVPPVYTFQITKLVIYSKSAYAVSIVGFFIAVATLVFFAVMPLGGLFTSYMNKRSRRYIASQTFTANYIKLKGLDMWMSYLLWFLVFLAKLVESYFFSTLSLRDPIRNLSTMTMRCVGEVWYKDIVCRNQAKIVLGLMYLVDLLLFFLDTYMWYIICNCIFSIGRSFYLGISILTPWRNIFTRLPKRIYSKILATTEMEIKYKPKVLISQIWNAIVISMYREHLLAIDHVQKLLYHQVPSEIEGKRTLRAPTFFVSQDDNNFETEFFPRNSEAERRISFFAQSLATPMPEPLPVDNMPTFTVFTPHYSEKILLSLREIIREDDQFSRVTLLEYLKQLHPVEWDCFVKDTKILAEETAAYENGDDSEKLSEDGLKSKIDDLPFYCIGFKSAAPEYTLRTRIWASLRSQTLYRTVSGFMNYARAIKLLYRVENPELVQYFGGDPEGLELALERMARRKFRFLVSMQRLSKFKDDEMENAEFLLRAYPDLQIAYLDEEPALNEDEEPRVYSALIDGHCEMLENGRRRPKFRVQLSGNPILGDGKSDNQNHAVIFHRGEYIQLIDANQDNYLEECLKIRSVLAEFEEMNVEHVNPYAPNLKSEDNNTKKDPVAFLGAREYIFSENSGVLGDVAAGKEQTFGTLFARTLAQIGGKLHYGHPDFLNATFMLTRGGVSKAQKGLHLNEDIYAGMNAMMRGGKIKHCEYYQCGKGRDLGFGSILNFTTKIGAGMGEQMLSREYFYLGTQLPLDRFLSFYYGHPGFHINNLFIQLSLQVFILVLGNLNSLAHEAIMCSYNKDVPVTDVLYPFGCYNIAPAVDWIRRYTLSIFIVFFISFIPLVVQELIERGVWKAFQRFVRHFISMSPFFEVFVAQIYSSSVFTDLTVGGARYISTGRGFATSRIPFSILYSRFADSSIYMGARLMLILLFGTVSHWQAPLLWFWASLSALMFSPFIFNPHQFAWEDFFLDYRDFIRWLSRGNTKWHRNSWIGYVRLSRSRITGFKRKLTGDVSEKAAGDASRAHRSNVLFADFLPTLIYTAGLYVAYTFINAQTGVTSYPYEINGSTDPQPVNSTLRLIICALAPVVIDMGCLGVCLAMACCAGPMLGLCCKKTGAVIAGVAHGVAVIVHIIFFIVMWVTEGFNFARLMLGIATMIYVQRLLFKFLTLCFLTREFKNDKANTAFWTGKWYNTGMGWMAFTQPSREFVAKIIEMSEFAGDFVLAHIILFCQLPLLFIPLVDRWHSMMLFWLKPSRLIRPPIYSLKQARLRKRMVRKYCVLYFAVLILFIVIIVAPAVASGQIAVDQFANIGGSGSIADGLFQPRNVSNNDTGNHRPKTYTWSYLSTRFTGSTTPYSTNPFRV
T1 sequence (O42825 1-195 partner limits assumed): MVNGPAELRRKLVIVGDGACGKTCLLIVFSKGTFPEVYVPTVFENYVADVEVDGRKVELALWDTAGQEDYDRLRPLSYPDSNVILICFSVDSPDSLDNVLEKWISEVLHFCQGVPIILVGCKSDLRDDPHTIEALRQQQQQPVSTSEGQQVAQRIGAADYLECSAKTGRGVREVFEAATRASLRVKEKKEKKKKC

**Q.** CC(C)[C@@H](C)[C@@]1(C)CC[C@]2(C)[C@H]3CC[C@@H]4[C@@]5(COC[C@@]4(C)[C@@H](OC[C@](C)(N)C(C)C)[C@H](n4nnc(CO)n4)C5)C3=CC[C@@]2(C)[C@@H]1C(=O)O [Example 43B, (1S,4aR,6aS,7R,8R,10aR,10bR,12aR,14R,15R)-15-[[(2R)-2-amino-2,3-dimethylbutyl]oxy]-8-[(1R)-1,2-dimethylpropyl]-14-[5-(hydroxymethyl)-2H-tetrazol-2-yl]-1,6,6a,7,8,9,10,10a,10b,11,12,12a-dodecahydro-1,6a,8,10a-tetramethyl-4H-1,4a-propano-2H-phenanthro[1,2-c]pyran-7-carboxylic acid] was tested. Which IC50 did it give?
**A.** 85.1 nM

**Q.** CC(C)C(C(C)O[C@H]1[C@H](n2nnc(N)n2)C[C@@]23COC[C@]1(C)[C@@H]2CC[C@H]1C3=CC[C@@]2(C)[C@H](C(=O)O)[C@@](C)([C@H](C)C(C)C)CC[C@]12C)N(C)C (stereo partly drawn) [Example 49, (1S,4aR,6aS,7R,8R,10aR,10bR,12aR,14R,15R)-14-(5-amino-2H-tetrazol-2-yl)-15-[2-(dimethylamino)-1,3-dimethylbutoxy]-8-[(1R)-1,2-dimethylpropyl]-1,6,6a,7,8,9,10,10a,10b,11,12,12a-dodecahydro-1,6a,8,10a-tetramethyl-4H-1,4a-propano-2H-phenanthro[1,2-c]pyran-7-carboxylic acid] was tested. Which IC50 did it give?
**A.** 26.4 nM

**Q.** How did the IC50 turn out when CC(C)[C@@H](C)[C@@]1(C)CC[C@]2(C)[C@H]3CC[C@@H]4[C@@]5(COC[C@@]4(C)[C@@H](OC[C@@](C)(N)C(C)C)[C@H](n4nnc(N)n4)C5)C3=CC[C@@]2(C)[C@@H]1C(N)=O [Example 51, (1S,4aR,6aS,7R,8R,10aR,10bR,12aR,14R,15R)-15-[[(2S)-2-amino-2,3-dimethylbutyl]oxy]-14-(5-amino-2H-tetrazol-2-yl)-8-[(1 R)-1,2-dimethylpropyl]-1,6,6a,7,8,9,10,10a,10b,11,12,12a-dodecahydro-1,6a,8,10a-tetramethyl-4H-1,4a-propano-2H-phenanthro[1,2-c]pyran-7-carboxamide] was run?
**A.** 3.06 nM

**Q.** CN[C@@](C)(CO[C@H]1[C@H](n2nnc(N)n2)C[C@@]23COC[C@]1(C)[C@@H]2CC[C@H]1C3=CC[C@@]2(C)[C@H](C(=O)O)[C@@](C)([C@H](C)C(C)C)CC[C@]12C)C(C)C [Example 52, (1S,4aR,6aS,7R,8R,10aR,10bR,12aR,14R,15R)-14-(5-amino-2H-tetrazol-2-yl)-15-[[(2R)-2,3-dimethyl-2-(methylamino)butyl]oxy]-8-[(1R)-1,2-dimethylpropyl]-1,6,6a,7,8,9,10,10a,10b,11,12,12a-dodecahydro-1,6a,8,10a-tetramethyl-4H-1,4a-propano-2H-phenanthro[1,2-c]pyran-7-carboxylic acid] was tested. Which IC50 did it give?
**A.** 2.99 nM

**Q.** For CCCN[C@@](C)(CO[C@H]1[C@H](n2nnc(N)n2)C[C@@]23COC[C@]1(C)[C@@H]2CC[C@H]1C3=CC[C@@]2(C)[C@H](C(=O)O)[C@@](C)([C@H](C)C(C)C)CC[C@]12C)C(C)C [Example 55, (1S,4aR,6aS,7R,8R,10aR,10bR,12aR,14R,15R)-14-(5-amino-2H-tetrazol-2-yl)-15-[[(2R)-2,3-dimethyl-2-(propylamino)butyl]oxy]-8-[(1R)-1,2-dimethylpropyl]-1,6,6a,7,8,9,10,10a,10b,11,12,12a-dodecahydro-1,6a,8,10a-tetramethyl-4H-1,4a-propano-2H-phenanthro[1,2-c]pyran-7-carboxylic acid], which IC50 is on record?
**A.** 11.5 nM

**Q.** Which IC50 does the source give for CC(C)N[C@@](C)(CO[C@H]1[C@H](n2nnc(N)n2)C[C@@]23COC[C@]1(C)[C@@H]2CC[C@H]1C3=CC[C@@]2(C)[C@H](C(=O)O)[C@@](C)([C@H](C)C(C)C)CC[C@]12C)C(C)C [Example 57, (1S,4aR,6aS,7R,8R,10aR,10bR,12aR,14R,15R)-14-(5-amino-2H-tetrazol-2-yl)-15-[[(2R)-2,3-dimethyl-2-[(1-methylethyl)amino]butyl]oxy]-8-[(1R)-1,2-dimethylpropyl]-1,6,6a,7,8,9,10,10a,10b,11,12,12a-dodecahydro-1,6a,8,10a-tetramethyl-4H-1,4a-propano-2H-phenanthro[1,2-c]pyran-7-carboxylic acid] here?
**A.** 8.61 nM

**Q.** Which IC50 does the source give for CC(C)[C@@H](C)[C@@]1(C)CC[C@]2(C)[C@H]3CC[C@@H]4[C@@]5(COC[C@@]4(C)[C@@H](OC[C@](C)(NCc4ccccc4)C(C)C)[C@H](n4nnc(N)n4)C5)C3=CC[C@@]2(C)[C@@H]1C(=O)O [Example 61, (1S,4aR,6aS,7R,8R,10aR,10bR,12aR,14R,15R)-14-(5-amino-2H-tetrazol-2-yl)-15-[[(2R)-2,3-dimethyl-2-[(phenylmethyl)amino]butyl]oxy]-8-[(1R)-1,2-dimethylpropyl]-1,6,6a,7,8,9,10,10a,10b,11,12,12a-dodecahydro-1,6a,8,10a-tetramethyl-4H-1,4a-propano-2H-phenanthro[1,2-c]pyran-7-carboxylic acid] here?
**A.** 10.7 nM

**Q.** How did the IC50 turn out when CCCN(C)[C@](C)(CO[C@H]1[C@H](n2nnc(N)n2)C[C@@]23COC[C@]1(C)[C@@H]2CC[C@H]1C3=CC[C@@]2(C)[C@H](C(=O)O)[C@@](C)([C@H](C)C(C)C)CC[C@]12C)C(C)C [Example 69, (1S,4aR,6aS,7R,8R,10aR,10bR,12aR,14R,15R)-14-(5-amino-2H-tetrazol-2-yl)-15-[[(2S)-2,3-dimethyl-2-(methylpropylamino)butyl]oxy]-8-[(1R)-1,2-dimethylpropyl]-1,6,6a,7,8,9,10,10a,10b,11,12,12a-dodecahydro-1,6a,8,10a-tetramethyl-4H-1,4a-propano-2H-phenanthro[1,2-c]pyran-7-carboxylic acid] was run?
**A.** 28.1 nM

**Q.** How did the IC50 turn out when CCCCN[C@](C)(CO[C@H]1[C@H](n2nnc(N)n2)C[C@@]23COC[C@]1(C)[C@@H]2CC[C@H]1C3=CC[C@@]2(C)[C@H](C(=O)O)[C@@](C)([C@H](C)C(C)C)CC[C@]12C)C(C)C [Example 71, (1S,4aR,6aS,7R,8R,10aR,10bR,12aR,14R,15R)-14-(5-amino-2H-tetrazol-2-yl)-15-[[(2S)-2-(butylamino)-2,3-dimethylbutyl]oxy]-8-[(1R)-1,2-dimethylpropyl]-1,6,6a,7,8,9,10,10a,10b,11,12,12a-dodecahydro-1,6a,8,10a-tetramethyl-4H-1,4a-propano-2H-phenanthro[1,2-c]pyran-7-carboxylic acid] was run?
**A.** 12.7 nM

**Q.** With CCC[C@H](CO[C@H]1[C@H](n2nnc(N)n2)C[C@@]23COC[C@]1(C)[C@@H]2CC[C@H]1C3=CC[C@@]2(C)[C@H](C(=O)O)[C@@](C)([C@H](C)C(C)C)CC[C@]12C)N(C)C [Example 77, (1S,4aR,6aS,7R,8R,10aR,10bR,12aR,14R,15R)-14-(5-amino-2H-tetrazol-2-yl)-15-[[(2R)-2-(dimethylamino)pentyl]oxy]-8-[(1R)-1,2-dimethylpropyl]-1,6,6a,7,8,9,10,10a,10b,11,12,12a-dodecahydro-1,6a,8,10a-tetramethyl-4H-1,4a-propano-2H-phenanthro[1,2-c]pyran-7-carboxylic acid] as the molecule, how does the IC50 read?
**A.** 20.9 nM
